Test results published in patent US9617251B2, “Indanylaminopyridylcyclopropanecarboxylic acids, pharmaceutical compositions and uses thereof” (BOEHRINGER INGELHEIM INTERNATIONAL GMBH, priority 2015, dated 2017).
In brackets after ≈: the same amount, converted by molar mass.

How the values were obtained:
[1] = biological target: T1, cytochrome P450 2C9-isoenzyme (Homo sapiens, UniProt P11712); assay: Inhibition of CYP-2C9 (hydroxylation of diclofenac, human liver microsomes); format: in vitro ADME; settings: CYP-2C9, human liver microsomes, diclofenac 10 μM, 37° C.
T1 construct: from tissue; host or cells: human liver microsomes
T1 sequence (P11712 whole entry): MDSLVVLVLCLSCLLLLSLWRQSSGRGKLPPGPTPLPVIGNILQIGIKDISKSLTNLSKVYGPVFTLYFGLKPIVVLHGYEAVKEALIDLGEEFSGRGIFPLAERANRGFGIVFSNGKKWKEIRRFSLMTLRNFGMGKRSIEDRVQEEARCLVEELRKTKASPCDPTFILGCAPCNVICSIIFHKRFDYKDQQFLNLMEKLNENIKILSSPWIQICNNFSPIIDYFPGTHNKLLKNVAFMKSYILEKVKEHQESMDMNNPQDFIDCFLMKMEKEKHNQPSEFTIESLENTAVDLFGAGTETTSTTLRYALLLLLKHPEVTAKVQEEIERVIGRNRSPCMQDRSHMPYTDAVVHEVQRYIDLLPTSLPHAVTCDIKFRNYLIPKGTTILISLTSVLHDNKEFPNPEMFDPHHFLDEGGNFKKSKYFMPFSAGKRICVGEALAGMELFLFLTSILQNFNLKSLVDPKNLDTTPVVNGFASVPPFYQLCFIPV
Description: The inhibition of cytochrome P450 2C9-isoenzyme catalyzed hydroxylation of diclofenac by the test compound is assayed at 37° C. with human liver microsomes. All assays are carried out on a robotic system in 96 well plates. The final incubation volume contains TRIS buffer (0.1 M), MgCl2 (5 mM), human liver microsomes (0.1 mg/mL), diclofenac (10 μM) and the test compound at five different concentrations or no compound (high control) in duplicate (e.g., highest concentration 10-50 μM with subsequent serial 1:4 dilutions). Following a short preincubation period, reactions are started with the cofactor (NADPH, 1 mM) and stopped by cooling the incubation down to 8° C. and subsequently by addition of one volume of acetonitrile. An internal standard solution—the stable isotope ^13C6-hydroxydiclofenac—is added after quenching of incubations. Peak area analyte (=metabolite formed) and internal standard is determined by LC-MS/MS. The resulting peak area ratio analyte to internal standard in these incubations is compared to a control activity containing no test compound. Within each of the assay runs, the IC50 of a positive control inhibitor (sulfaphenazole) is determined. Experimental IC50 values are calculated by least square regression according to the following equation: % control activity=(100% control activity/(1+(I/IC50)S))−B with I=inhibitor concentration; S=slope factor; B=background activity (lower plateau of the inhibition curve)
(§1) If the inhibition of the reaction is already >50% at the lowest concentration of the test compound, the IC50 is assigned “<lowest concentration tested” (usually <0.4 μM). If the inhibition of the reaction is still <50% at the highest concentration of the test compound, the IC50 is assigned “>highest concentration tested” (usually >50 μM).

[2] = Chemical stability: degradation kinetics in acidic aqueous media (pH ca. 1.2), HPLC recovery; format: physicochemical; settings: pH value of ca. 1.2 (acetonitrile/0.1 M aqueous HCl 2:3), 37° C.
Description: Degradation kinetics is used to simulate chemical stability of compounds in the acidic part of the gastro intestinal tract. […] Their application as medical drugs to treat human diseases is therefore less restricted and troublesome.
The chemical stability of the compounds of the invention at pH value of ca. 1.2 is determined as follows:
Compound is dissolved in an HPLC vial either in a mixture of acetonitrile/0.1 M aqueous HCl (2:3; pH ca. 1.2) or in a mixture of acetonitrile/McIlvaine buffer pH 7.4 (2:3) to get a concentration of approximately 0.25 mg/ml. The vial was then transferred into an HPLC autosampler system and maintained at a temperature of 37° C. A first sample is taken and injected immediately into a standard HPLC system with a UV DAD detector. Further samples are injected after 2, 4, 6, 8 and 10 hours. Amount of degraded compound is measured by determining the recovery rate of compound [%] for each injection using an HPLC standard gradient method. Therefore the peak area of the main peak for the first injection (AUt0) is determined and set as 100%. Peak area of the main peak is determined also for the further injections (AUtn, n=2, 4, 6, 8, 10) and expressed as fraction of (AUt0)/(AUtn, n=2, 4, 6, 8, 10) [%].

[3] = biological target: human GPR40 receptor (Homo sapiens, UniProt O14842); assay: IP1 accumulation measurements using the IPOne assay system (1321N1 cells stably expressing human GPR40 receptor); format: cell-based; settings: 1321N1 cells expressing human GPR40, 1 h stimulation at 37° C.
human GPR40 receptor, sequence (O14842 whole entry): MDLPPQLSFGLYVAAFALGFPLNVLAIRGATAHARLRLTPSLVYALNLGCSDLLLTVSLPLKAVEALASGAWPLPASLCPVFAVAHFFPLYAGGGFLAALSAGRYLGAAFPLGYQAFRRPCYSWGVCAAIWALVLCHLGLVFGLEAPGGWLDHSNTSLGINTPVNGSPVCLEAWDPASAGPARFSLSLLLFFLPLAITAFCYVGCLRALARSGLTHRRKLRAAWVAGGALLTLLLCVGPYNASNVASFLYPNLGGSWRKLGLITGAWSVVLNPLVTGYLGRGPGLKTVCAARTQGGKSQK
Description: IP1 accumulation measurements using the IPOne assay system—1321N1 cells stably expressing human GPR40 receptor (Euroscreen, Belgium) are seeded 24 h before the assay in white 384-well plates in culture medium containing 10% FCS, 1% Na-Pyruvate and 400 μg/mL G418. IP1 is assayed according to the manufacturer's description (Cisbio Bioassays, France). In brief, the assay is started by substitution of the culture medium by stimulation buffer (Hepes 10 mM, CaCl2 1 mM, MgCl2 0.5 mM, KCl 4.2 mM, NaCl 146 mM, glucose 5.5 mM and LiCl 50 mM, pH 7.4). Cells are stimulated for 1 h at 37° C., 5% CO2 by addition of the compounds that are diluted in stimulation buffer containing LiCl. Assays are stopped by adding HTRF-conjugates (IP1-d2 and Anti-IP1 cryptate Tb) and lysis buffer, provided by the manufacturer. After an incubation time of 1 h at room temperature plates are measured using an EnVision™, Perkin Elmer. The obtained fluorescence ratios at 665/615 […] are then used to calculate the pEC50 values using Assay Explorer 3.3 Software (Accelrys, Inc.) by interpolation using an IP1 reference curve and subsequent sigmoidal curve fitting allowing for a variable hill slope.

[4] = biological target: T2, cytochrome P450 2C8-isoenzyme (Homo sapiens, UniProt P10632); assay: Inhibition of CYP-2C8 (deethylation of amodiaquine, human liver microsomes); format: in vitro ADME; settings: CYP-2C8, human liver microsomes, amodiaquine 1 μM, 37° C.
T2 construct: from tissue; host or cells: human liver microsomes
T2 sequence (P10632 1-490): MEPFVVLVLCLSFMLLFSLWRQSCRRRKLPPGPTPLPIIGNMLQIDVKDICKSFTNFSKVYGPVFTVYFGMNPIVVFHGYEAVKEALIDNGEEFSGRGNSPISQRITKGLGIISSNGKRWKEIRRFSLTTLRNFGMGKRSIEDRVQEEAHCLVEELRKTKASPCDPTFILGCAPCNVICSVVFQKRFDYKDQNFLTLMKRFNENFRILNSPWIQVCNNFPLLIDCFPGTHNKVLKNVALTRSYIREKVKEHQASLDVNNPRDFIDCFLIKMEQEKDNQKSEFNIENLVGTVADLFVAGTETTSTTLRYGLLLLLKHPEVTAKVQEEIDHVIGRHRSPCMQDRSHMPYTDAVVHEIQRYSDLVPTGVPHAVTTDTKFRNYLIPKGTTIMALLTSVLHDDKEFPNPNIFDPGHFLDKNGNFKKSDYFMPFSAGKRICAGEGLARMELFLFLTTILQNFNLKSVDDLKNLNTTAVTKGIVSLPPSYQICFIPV
Description: The inhibition of cytochrome P450 2C8-isoenzyme catalyzed deethylation of amodiaquine by the test compound is assayed at 37° C. with human liver microsomes. All assays are carried out on a robotic system in 96 well plates. The final incubation volume contains TRIS buffer (0.1 M), MgCl2 (5 mM), human liver microsomes (0.05 mg/mL), amodiaquine (1 μM) and the test compound at five different concentrations or no compound (high control) in duplicate (e.g. highest concentration 10-50 μM with subsequent serial 1:4 dilutions). Following a short preincubation period, reactions are started with the cofactor (NADPH, 1 mM) and stopped by cooling the incubation down to 8° C. and subsequently by addition of one volume of acetonitrile. An internal standard solution—the stable isotope d5-desethylamodiaquine—is added after quenching of incubations. Peak area analyte (=metabolite formed) and internal standard is determined by LC-MS/MS. The resulting peak area ratio analyte to internal standard in these incubations is compared to a control activity containing no test compound. Within each of the assay runs, the IC50 of a positive control inhibitor (Montelukast) is determined. Experimental IC50 values are calculated by least square regression according to the following equation: % control activity=(100% control activity/(1+(I/IC50)S))−B with I=inhibitor concentration; S=slope factor; B=background activity (lower plateau of the inhibition curve)
as §1

[5] = Aqueous solubility in buffer vs acetonitrile/water (1/1), LC-UV; format: physicochemical; settings: kinetic from dmso stock, buffer pH 2.2, 24 h shaking, 2.5% DMSO
Description: The aqueous solubility of the compounds of the invention is determined by comparing the amount dissolved in buffer to the amount in an acetonitrile/water (1/1) solution. Starting from a 10 mM DMSO stock solution aliquots are diluted with acetonitrile/water (1/1) or buffer, respectively. After 24 h of shaking, the solutions are filtrated and analyzed by LC-UV. The amount dissolved in buffer is compared to the amount in the acetonitrile solution.
Solubility is usually being measured from 0.001 to 0.125 mg/mL at a DMSO concentration of 2.5%. If more than 90% of the compound is dissolved in buffer, the value is marked with “>”.

Structure (SMILES) | IC50 [1] | Amount of degradation after 2 h [2] | EC50 [3] | IC50 [4] | solubility at 24 h [5]
Cc1cc(-c2nnn(C)n2)cc(C)c1-c1cccc2c1CC[C@H]2Nc1ccc([C@H]2C[C@@H]2C(=O)O)cn1 [Example 1, (1S,2S)-2-(6-{(R)-4-[2,6-Dimethyl-4-(2-methyl-2H-tetrazol-5-yl)-phenyl]-indan-1-ylamino}-pyridin-3-yl)-cyclopropanecarboxylic acid] | 48 µM | <0.5% | 0.007 µM | 16 µM | 67 µg/mL (≈ 139 µM)
Cc1cc(OCCC(C)(C)O)cc(C)c1-c1cccc2c1CC[C@H]2Nc1ccc([C@H]2C[C@@H]2C(=O)O)cn1 [Example 2, (1S,2S)-2-(6-{(R)-4-[4-(3-Hydroxy-3-methyl-butoxy)-2,6-dimethyl-phenyl]-indan-1-ylamino}-pyridin-3-yl)-cyclopropanecarboxylic acid] | > 50 µM | <0.5% | 0.011 µM | 30 µM | 83 µg/mL (≈ 166 µM)
Cc1cc(OCCC(C)(C)O)cc(C)c1-c1ccc(F)c2c1CC[C@H]2Nc1ccc([C@H]2C[C@@H]2C(=O)O)cn1 [Example 4, (1S,2S)-2-(6-{(R)-7-Fluoro-4-[4-(3-hydroxy-3-methyl-butoxy)-2,6-dimethyl-phenyl]-indan-1-ylamino}-pyridin-3-yl)-cyclopropanecarboxylic acid] | > 50 µM | <0.5% | 0.008 µM | 46 µM | 89 µg/mL (≈ 172 µM)
COc1cc(C)c(-c2ccc(F)c3c2CC[C@H]3Nc2ccc([C@H]3C[C@@H]3C(=O)O)cn2)c(C)c1 [Example 19] | 35 µM | <1.0% | 0.016 µM | 26 µM | 67 µg/mL (≈ 150 µM)
Cc1cc(C#N)cc(C)c1-c1ccc(F)c2c1CC[C@H]2Nc1ccc([C@H]2C[C@@H]2C(=O)O)cn1 [Example 20] | 33 µM | <0.5% | 0.018 µM | 24 µM | 66 µg/mL (≈ 149 µM)
Cc1cc(C(N)=O)cc(C)c1-c1ccc(F)c2c1CC[C@H]2Nc1ccc([C@H]2C[C@@H]2C(=O)O)cn1 [Example 21] | > 50 µM | <0.5% | 0.06 µM | > 50 µM | 83 µg/mL (≈ 181 µM)
CCc1cccc(CC)c1-c1ccc(F)c2c1CC[C@H]2Nc1ccc([C@H]2C[C@@H]2C(=O)O)cn1 [Example 23] | 15 µM | <0.5% | 0.005 µM | 11 µM | 75 µg/mL (≈ 169 µM)
Cc1nc(-c2cc(C)c(-c3ccc(F)c4c3CC[C@H]4Nc3ccc([C@H]4C[C@@H]4C(=O)O)cn3)c(C)c2)no1 [Example 26] | > 50 µM | <0.5% | 0.004 µM | 35 µM | 65 µg/mL (≈ 130 µM)
Cc1cc(-c2ccnn2C)cc(C)c1-c1ccc(F)c2c1CC[C@H]2Nc1ccc([C@H]2C[C@@H]2C(=O)O)cn1 [Example 31] | 27 µM | <0.5% | 0.031 µM | 9 µM | 93 µg/mL (≈ 187 µM)
Cc1cc(OCC(C)(C)C#N)cc(C)c1-c1ccc(F)c2c1CC[C@H]2Nc1ccc([C@H]2C[C@@H]2C(=O)O)cn1 [Example 35] | 34 µM | <0.5% | 0.023 µM | 18 µM | 59 µg/mL (≈ 115 µM)
Cc1cc(-c2ccn(C)c(=O)c2)cc(C)c1-c1ccc(F)c2c1CC[C@H]2Nc1ccc([C@H]2C[C@@H]2C(=O)O)cn1 [Example 36] | > 50 µM | <0.5% | 0.006 µM | 10 µM | 107 µg/mL (≈ 204 µM)
Cc1cc(O)cc(C)c1-c1ccc(F)c2c1CC[C@H]2Nc1ccc([C@H]2C[C@@H]2C(=O)O)cn1 [Example 41] | > 50 µM | <1.5% | 0.033 µM | 34 µM | 103 µg/mL (≈ 238 µM)
N#CC1(c2ccccc2-c2ccc(F)c3c2CC[C@H]3Nc2ccc([C@H]3C[C@@H]3C(=O)O)cn2)CC1 [Example 46] | 9 µM | <0.5% | 0.629 µM | 32 µM | 85 µg/mL (≈ 187 µM)
CC(C)c1ccccc1-c1ccc(F)c2c1CC[C@H]2Nc1ccc([C@H]2C[C@@H]2C(=O)O)cn1 [Example 47] | 14 µM | <0.5% | 0.026 µM | 12 µM | 72 µg/mL (≈ 167 µM)
O=C(O)[C@H]1C[C@@H]1c1ccc(N[C@@H]2CCc3c(-c4c(Cl)cccc4Cl)ccc(F)c32)nc1 [Example 50] | 22 µM | <1.0% | 0.013 µM | 21 µM | 69 µg/mL (≈ 151 µM)
